Data from patent US8716268B2, “Nitrate esters of corticoid compounds useful as diuretics” (priority 2010, dated 2014).
Marks after values point to notes of the source that are not given here.

Columns and labels:
[1] = Diuretic effect of Dexamethasone in intact Wistar rats; format: in vivo; conditions: 24-hour treatment, Dex 1 mg/kg (RU486 100 mg/kg in combination), mean ± SD
From the text: (§1) To determine the effect of glucocorticoids on diuretic effect and NPR-A expression in renal medulla, 15 intact Wistar rats were randomized to receive Dexamethasone (Dex), vehicle and glucocorticoid receptor (GR) antagonist RU 486.

NPR-A [2] = assay: NPR-A expression in renal medulla of intact rats (western blotting); format: in vivo; conditions: intact Wistar rats, 24-hour treatment, Dex 1 mg/kg (RU486 100 mg/kg in combination), mean ± SD
From the text: as §1

NPR-A [3] = assay: NPR-A expression in renal medulla of heart failure rats (western blotting); format: in vivo, Wistar rats
Procedure: (§2) To determine the effects of corticosteroids on systemic volume in HF, 15 Wistar rats with HF were randomized to receive NCX-1015 (n=5), or prednisolone (n=5), or vehicle (n=5). HF model was accomplished by left anterior descending artery ligation, and then the survived rats were raised for 12 weeks to have decompensated HF (i.e. HF with fluid accumulation). Parameters on urinary volume and urinary sodium in 12 hours were collected.

[4] = Diuretic effect in rats with decompensated heart failure; format: in vivo, Wistar rats; conditions: 1 mg/kg, 12 hours, mean ± SD
Procedure: as §2

angiotensin II = assay: Plasma angiotensin II in rats with decompensated heart failure; format: in vivo, Wistar rats; conditions: 1 mg/kg, 24-hour treatment, mean ± SD
From the text: (§3) To determine the effects of corticosteroids on RAAS in HF, 15 Wistar rats with HF were randomized to receive NCX-1015 (n=5), or prednisolone (n=5), or vehicle (n=5).

NPR-A [5] = assay: NPR-A expression in IMCD cells (immunofluorescence); format: cell-based, Wistar rats; parameters: key to NPR-A expression (24 hours) / NPR-A expression (48 hours): + = low; ++ = moderate; +++ = high; conditions: for NPR-A expression (24 hours) / NPR-A expression (48 hours): rat IMCD cells
From the text: IMCD cells from Wistar rats were isolated and cultured using the method previously described by Ye Q et al.: Endothelin inhibits NPR-A and stimulates eNOS gene expression in rat IMCD cells. Hypertension 41, 675-681 (2003). […] […] The Density of membrane NPR-A in IMCD cells were visualized by immunofluorescence.

AT1 receptor = AT1 receptor density in the kidney of rats with decompensated heart failure (western blotting); format: in vivo, Wistar rats; conditions: 1 mg/kg, 24-hour treatment, mean ± SD
From the text: as §3

V2 receptor = V2 receptor density in the kidney of rats with decompensated heart failure (western blotting); format: in vivo, Wistar rats; conditions: 1 mg/kg, 24-hour treatment, mean ± SD
From the text: (§4) To determine the effects of corticosteroids on vasopressin axis in HF, 15 Wistar rats with HF were randomized to receive NCX-1015 (n=5), or prednisolone (n=5), or vehicle (n=5).

aldosterone = assay: Plasma aldosterone in rats with decompensated heart failure; format: in vivo, Wistar rats; conditions: 1 mg/kg, 24-hour treatment, mean ± SD
From the text: as §3

vasopressin = assay: Plasma vasopressin in rats with decompensated heart failure; format: in vivo, Wistar rats; conditions: 1 mg/kg, 24-hour treatment, mean ± SD
From the text: as §4

[6] = 10^−7 mol/L, membrane NPR-A density
[7] = 10^−7 mol/L, membrane NPR-A density (Table 3)
[8] = 10^−6 mol/L, membrane NPR-A density (Table 3)
[9] = 10^−6 mol/L, membrane NPR-A density

| Structure (SMILES) | NPR-A expression in the renal medulla, higher than vehicle-treated rats (NPR-A [3]) [%] | Urinary sodium [4] [mmol/12 h] | Urinary volume [4] [ml/12 h] | Plasma angiotensin II (angiotensin II) | AT1 receptor density in the kidney (AT1 receptor) | V2 receptor density in the kidney (V2 receptor) | Plasma aldosterone (aldosterone) [ng/mL] | Plasma vasopressin (vasopressin) | other results |
| --- | --- | --- | --- | --- | --- | --- | --- | --- | --- |
| C[C@@H]1C[C@H]2[C@@H]3CCC4=CC(=O)C=C[C@]4(C)[C@@]3(F)[C@@H](O)C[C@]2(C)[C@@]1(O)C(=O)CO [Dex, Dexamethasone] |  |  |  |  |  |  |  |  | Urinary sodium [1]: 3.50 ± 0.39 mmol/24 h; Urinary volume [1]: 16.4 ± 2.4 ml/24 h; NPR-A expression (NPR-A [2]): 132.2 ± 9.7* 100% of vehicle |
| C[C@]12C=CC(=O)C=C1CC[C@@H]1[C@@H]2[C@@H](O)C[C@@]2(C)[C@H]1CC[C@]2(O)C(=O)COC(=O)c1ccc(CO[N+](=O)[O-])cc1 [NCX-1015, prednisolone 21-[(4′-nitro-oxymethyl)benzoate]] | 42.8 | 1.43 ± 0.15 | 8.8 ± 1.5 | 412.20 ± 64.99*^& pg/ml | 43.14 ± 7.07 % of vehicle | 54.06 ± 16.15 % of vehicle | 0.99 ± 0.09 | 32.14 ± 5.47 pg/mL | Dose needed to attain the same effect of prednisolone on renal NPR-A (NPR-A [5]; in vitro, fraction of the prednisolone dose): about 1/10; Time needed to attain the same effect of prednisolone on renal NPR-A (NPR-A [5]; in vitro, fraction of the prednisolone time): about half; NPR-A expression (24 hours) (NPR-A [5]; [6]): ++; NPR-A expression (48 hours) (NPR-A [5]; [6]): +++ |
| C[C@]12CCC(=O)C=C1CC[C@@H]1[C@@H]2[C@@H](O)C[C@@]2(C)[C@H]1CC[C@]2(O)C(=O)COC(=O)c1ccc(CO[N+](=O)[O-])cc1 [NCX-1022] |  |  |  |  |  |  |  |  | NPR-A expression (24 hours) (NPR-A [5]; [7]): ++; NPR-A expression (48 hours) (NPR-A [5]; [7]): +++ |
| C[C@]12CCC(=O)C=C1CC[C@@H]1[C@@H]2[C@@H](O)C[C@@]2(C)[C@H]1CC[C@]2(O)C(=O)CO [hydrocortisone] |  |  |  |  |  |  |  |  | NPR-A expression (24 hours) (NPR-A [5]; [8]): +; NPR-A expression (48 hours) (NPR-A [5]; [8]): ++ |
| C[C@]12C=CC(=O)C=C1CC[C@@H]1[C@@H]2[C@@H](O)C[C@@]2(C)[C@H]1CC[C@]2(O)C(=O)CO [prednisolone] | 26.5 | 1.08 ± 0.1 | 6.1 ± 0.7 | 665.86 ± 113.90^$ pg/ml | 67.06 ± 12.96 % of vehicle | 79.80 ± 9.44^$ % of vehicle | 1.39 ± 0.26 | 45.72 ± 8.35^$ pg/ml | NPR-A expression (24 hours) (NPR-A [5]; [9]): +; NPR-A expression (48 hours) (NPR-A [5]; [9]): ++ |
